Literature values, collected in patent US11491120B2, “Pharmacological prophylactics against stress-induced affective disorders in females” (The Trustees of Columbia University in the City of New York, priority 2017, dated 2022).

Assays:
[1] = following ketamine infusion; cited from earlier work
NMDAR = conditions: cited from earlier work

For `N[C@@]1(c2ccccc2Cl)CCC[C@@H](O)C1=O` [(2R,6R;2S,6S)-HNK, (2R,6R;2S,6S)-hydroxynorketamine], the “Share of the original ketamine dose found as metabolite in the brain” value [1] is given as 15%.

In the case of `CN[C@]1(c2ccccc2Cl)CCCCC1=O` [(S)-ketamine], the “Antagonism of the NMDAR, relative strength” value (NMDAR) is listed as “four-fold stronger antagonist”.
